Test results reported in a melting point compilation (Tetko et al.; mined from patent text by program, amines drawn as free bases though some values may be those of a salt).

Point of comparison: `O=[N+]([O-])c1cccnc1Cc1ccccc1`, melting point 72 °C. Against it:
- Clc1ccc(-c2nccs2)cc1 — higher, 169 to 170 °C
- CCCCOc1ccc(C=CCCCC(=O)O)cc1 — lower, 56 to 57 °C
- O=C(Nc1ccc2oc3c(c2c1)CCCC3)c1ccc(Cl)cc1 — higher, 214 °C
- CCc1cc2c(ccc(=O)n2Cc2ccc(Oc3ccccc3CC(=O)O)cc2)c(CC)n1 — higher, 211 to 215 °C
- CC(=O)c1cc(Oc2ccccc2)c(NS(C)(=O)=O)cc1O — higher, 151 to 153 °C
- CCCCCCCCON=C(C(=O)OCC)c1csc(N)n1 — higher, 77 to 78 °C
- CN1CCN(c2cc3c(c(N)c2F)c(=O)c(C(=O)O)cn3C2CC2)CC1 — higher, 216 to 218 °C
- COc1cc(OC)nc(NC(=O)NS(=O)(=O)Nc2c(C)csc2C)n1 — higher, 190 °C
- Cc1c(C(C)O)cc(C(C)C)c(-c2ccc(O)cc2)c1Cl (centres undefined) — higher, 220 to 222 °C
- CCOC(=O)C1=C(C#N)NC(C)=C(C(=O)OCCOCc2ccccc2)C1c1ccccc1[N+](=O)[O-] (centres undefined) — higher, 139 to 140 °C
- CC1=CCC(C(=O)O)CC1 (centres undefined) — higher, 95 °C
- Cn1cc(-c2ccccc2)c(=O)c(-c2ccc3ccccc3c2)c1 — higher, 101 to 105 °C
- COC(=O)c1[nH]c(C)c(C)c1OCCCCCl — higher, 74 to 76 °C
- CNC(=O)ON=C1SCOC1C (centres undefined) — lower, 70 to 71.5 °C
- O=[N+]([O-])c1ccc(Oc2ccc(C(F)(F)F)cc2Cl)nc1 — not separable, 69 to 72 °C
- COc1cc2c(cc1OC)C(=O)C(=Cc1cc(Cl)cc(Cl)c1)CC2 — higher, 200 to 201 °C
- O=c1c2ccccc2oc2c(CBr)cccc12 — higher, 191 to 192 °C
- CC(Cl)(Cl)C(NC(=O)c1ccc(Cl)cc1)NC(=NC#N)Nc1cccnc1 (centres undefined) — higher, 185 to 187 °C
- N#Cc1c(F)c(F)cc(C(=O)O)c1F — higher, 187 to 190 °C
- CCOC(=O)[C@@H]1C[C@H]1Sc1nc2ccccc2cc1-c1ccccc1 (relative stereo) — higher, 94 to 94.5 °C
- Cn1ncc(C(=O)O)c1Cl — higher, 195 to 197 °C
- CCCc1nc(OC)c(NC(=O)N2CCN(c3cc(OC)cc(OC)c3)CC2)cc1C — higher, 121 to 122 °C
- N#Cc1cnc2ccsc2c1Cl — higher, 105 to 107 °C
- Cc1cc(C(O)(CNC(=O)c2ccc(Cl)cc2)C(F)(F)F)ccc1NC(=O)OC(C)(C)C (centres undefined) — higher, 160 to 162 °C
- N#Cc1cccc2c1CCCC2=O — higher, > 230 °C
- COc1ccccc1C1(O)C(O)CC(c2ccccc2)(c2ccccc2)C2CN(C(=O)Cc3ccccc3OCc3ccccc3)CC21 (centres undefined) — higher, 158 °C
- CCCn1c(=O)c2nc(C(CC)c3ccc(OCC(=O)NCCN)cc3)[nH]c2n(CCC)c1=O (centres undefined) — higher, 139 to 140 °C
- S=C(Nc1ccccc1)Nc1ncccc1OCc1ccc(Cl)cc1 — higher, 162 to 164 °C
- CN(C(=O)OCc1ccccc1)c1ccc([N+](=O)[O-])cc1O — higher, 192 °C
- CCCc1nc(C)c2c(=O)[nH]c(C)nn12 — higher, 228 to 231 °C
- CCn1ncc2c3onc(-c4ccc(F)cc4)c3cnc21 — higher, 175 to 176 °C
- O=c1cc(OCC2CCCCC2)cc[nH]1 — higher, 256 to 260 °C
- CCOC(=O)c1nn(-c2ccc(F)cc2)c2c1CCCC2 — higher, 100 to 101 °C
- CCOc1ccc(C(=O)NCc2ccc3c(c2)C(=O)N(C2(C)CCC(=O)NC2=O)C3=O)nc1 (centres undefined) — higher, 145 to 147 °C
- C=CCNC(=O)C1CCc2cc(-c3ccccc3)ccc2O1 (centres undefined) — higher, 123 to 124 °C
- CCCCN(CCCCCCCCSc1nc(-c2ccccc2)c(-c2ccccc2)[nH]1)C(=O)Nc1ccc(F)cc1F — higher, 114 to 115 °C
- CCCN(c1cc(C)ccn1)c1cccc2c1OC[C@H]2Nc1ccc2c(c1)OC[C@H]2CC(=O)O — higher, 146 °C
- O=C1c2ccccc2C(=O)N1CCSCCc1ccco1 — lower, 53 to 55 °C
- CN1C(=O)CC(c2c(-c3ccc[nH]3)[nH]c3ccc(O)cc23)C1=O (centres undefined) — higher, 148 to 154 °C
- CN(C)CCn1c2ccccc2c(=NN=C2NCCS2)c2ccccc21 — higher, 192 to 194 °C
- CC(C)c1ccc2ccc(N)nc2n1 — higher, 158 to 160 °C
- COc1cc2nc3n(c(=O)c2cc1OC)CS(=O)(=O)N3 — higher, > 300 °C
- Cc1cc(CNC2CC2)cc(C)c1Oc1ccc([N+](=O)[O-])c(Nc2ccc(C#N)cc2)n1 — higher, 175 to 177 °C
- COC(=O)CCc1ccc(NC(=O)OC(C)(C)C)cc1 — not separable, 72 to 73.5 °C
- CCOC(=O)N1CCC(NC(=O)c2ccccc2)C12CCCCC2 (centres undefined) — higher, 132 to 133 °C
- CCOC(=O)CN1c2ccccc2N(C)C(=O)c2cccnc21 — higher, 99 to 100 °C
- N#Cc1ccc(-c2ccoc2)cc1 — lower, 55 to 57 °C
- N#CCc1cccc2c(-c3ccc([N+](=O)[O-])cc3)nccc12 — higher, 219 °C
- CCS(=O)(=O)N=CNCc1nc(-c2csc(N=C(N)N)n2)cs1 — higher, 216 to 217 °C
- O=C1C(=O)N(c2cccc3ccccc23)C(=O)N1c1ccc(Cl)cc1 — higher, 158 °C
- [N-]=[N+]=NC1CC(n2cnc3c(NC4CC4c4ccccc4)nc(N)nc32)OC1CO (centres undefined) — lower, 65 to 70 °C
- O=P(O)(O)COc1ccc(-c2c3ccccc3cc3sc4ccccc4c23)cc1 — higher, 240 to 242 °C
- Clc1ccc(OCc2ccc(Cl)s2)cc1 — lower, 48 to 49 °C
- Cc1cn(C(C)(C)C(=O)N(C)c2ccccc2)nc1-c1ccccc1 — higher, 152 to 154 °C
- CCOC(=O)c1cnc2cc(Cl)c(F)cc2c1O — higher, 283 to 290 °C
- O=C(Nc1ccccc1F)c1ccccc1CN1C(=O)C2(COc3cc4c(cc32)CCO4)c2ccccc21 (centres undefined) — higher, 195 to 197 °C
- O=S(=O)(c1ccccc1)N1CCC(C(O)(c2ccc(F)cc2)c2ccc(F)c(F)c2)CC1 (centres undefined) — higher, 97 to 99 °C
- NC(=O)N1Cc2c(-c3ccc(F)cc3)ncn2-c2ccccc21 — higher, 222 to 223 °C
- CC(C)=CCCC(C)=CCNC(=O)Nc1ccccc1CCc1cc(C(C)(C)C)c(O)c(C(C)(C)C)c1 — higher, 87 to 87.5 °C
- CC(C)OC(N)=C(C#N)C(=N)S — higher, 170 °C
- COc1ccc(CC2SC(=O)NC2=O)cc1CC(=O)Nc1ccc(Oc2ccccc2)cc1 (centres undefined) — higher, 82 to 84 °C
- O=C(c1cc(N2CCC(F)(F)CC2)ccn1)N(O)Cc1ccccc1 — higher, 90 to 95 °C
- COC(=O)c1cc(C(=O)OC)cc(N2C(=O)C=CC2=O)c1 — higher, 186 to 187 °C
- CC(=O)c1ccc(N2CCN(c3cccc(C)c3)CC2)nn1 — higher, 136 °C
- CN(C)c1cnc([N+](=O)[O-])cn1 — higher, 221 to 223 °C
- CC(=O)Nc1ccc2oc(-c3ccc(OCc4ccccc4)cc3)c(O)c(=O)c2c1 — higher, 255 to 258 °C
- O=[N+]([O-])c1sc(Oc2ccccc2)nc1Cl — higher, 96 °C
- Cc1cccc(NC(=O)Cn2c3c(c4c(Cl)c(Cl)ccc42)CCN(C(=O)OC(C)(C)C)CC3)c1C — higher, 232 to 233 °C
- Brc1ccc2c(c1)c1cc(Br)ccc1n2-c1ccccc1 — higher, 163 to 164 °C
- CCCCc1nc(SCC)c(C(=O)O)n1Cc1ccc(-c2ccccc2C(=O)O)cc1 — higher, 156 °C
- CC(C)C(NC(=O)OCc1csc(N2CCCC2)n1)C(=O)NC(Cc1ccccc1)CC(O)C(Cc1ccccc1)NC(=O)OCc1cncs1 (centres undefined) — higher, 146 to 148 °C
- CCOCCOC(=O)C(=O)Nc1nc(-c2ccc(OCC)cc2)cs1 — higher, 139 to 140 °C
- Clc1ccccc1-c1cccc2c1OC(CNCC1CC1)CO2 (centres undefined) — higher, 138 to 140 °C
